Consider two compounds from patent US20150023884A1, “Antiperspirant Spray Devices and Compositions” (The Procter & Gamble Company, priority 2013, published 2015).

On the data set, the source says:
Solubility may be determined by measuring the amount of light transmittance (a light transmittance value) through a simple mixture of the non-volatile silicone fluid and liquid activation enhancer at the same weight/weight concentrations as in a final antiperspirant composition.
Solubility of a liquid activation enhancer in a non-volatile silicone may be determined by measuring the amount of light transmittance (light transmittance value) through a simple mixture of the non-volatile silicone fluid and liquid activation enhancer at the same weight/weight concentrations as in a final antiperspirant composition.
The Spectronic Genesys 10 Vis utilizes a tungsten-halogen light source and has a spectral bandwidth of 5 nm, a wavelength range of 325 to 1100 nm, accuracy of ±1 nm and a repeatability of ±0.5 nm. Readouts include absorbance, transmittance and concentration. The spectrophotometer is set to 640 nm wavelength and the percent transmittance mode/readout. Polystyrene spectrometer cuvettes having a 1 cm optical light path and transmittance between ˜340 nm and ˜900 nm are used. One suitable example of a spectrometer cuvette is available from VWR International LLC under Catalog #97000-584 having a 2.5 to 4.5 ml capacity. […] The sample cuvettes are shaken well just prior to taking a light transmittance reading.

Take `CCCCCCCCCCCCCCCCCC(=O)OCCCC` [butyl stearate]: the light transmittance value entry is reported as “about 100%”.

Regarding `CCCCCCCCCCCCCC(C)C` [isohexadecane], the light transmittance value result is “about 100%”.
